Assay results taken from US20170216296A1, “METHODS OF TREATING HYPERGLYCEMIA” (Concert Pharmaceuticals, Inc., priority 2014, published 2017).

Legend:
HbAlc [1] = experiment: Phase 2 placebo-controlled clinical trial, HbAlc in whole blood; format: in vivo, human; details: for least square mean HbAlc value: 600 mg twice daily, preliminary, FIG. 1
Procedure: A Phase 2 placebo-controlled clinical trial of Compound (V) was conducted in patients with type 2 diabetic kidney disease and macroalbuminuria. The purpose of the trial was to compare Compound (V) to placebo in terms of safety and efficacy with respect to measures of renal function such as urinary albumin to creatinine ratio, serum creatinine levels, and estimated glomerular filtration rate. HbAlc was measured but was not an intended endpoint of the trial. Thus, while the study was controlled for other medications, it was not controlled for anti-glycemic medications nor were the placebo and treated groups matched for baseline HbAlc levels.
All patients enrolled in the clinical trial were concurrently treated with angiotensin modulators. The clinical trial consists of three parts, two of which were completed and a third part that is on-going. Part 1 was a double-blind, parallel, two-arm, placebo-controlled study evaluating the safety and efficacy of 600 mg of Compound (V) twice daily for 24 weeks. 182 patients were enrolled in this first part of the trial. Part 2 was a blinded 24-week extension study in which all patients who completed Part 1 were eligible to continue receiving 600 mg of Compound (V) or placebo twice daily. 143 patients were enrolled in this part of the clinical trial and have completed dosing. 123 of the 143 patients that were enrolled in Part 2 of the clinical trial completed Part 2. The combined 48 weeks of data from Parts 1 and 2 of the clinical trial have been analyzed. 102 patients enrolled in Part 3 which is a 48 week open-label extension study that is on-going. All patients who completed Part 2 were eligible to receive 600 mg of Compound (V) twice daily.
The key criteria for patients to be included in the clinical trial were (a) eGFR from 23 to 89 mL/min/1.73 m2, a measure of kidney function which indicates mild to moderately severe type 2 diabetic kidney disease; (b) having been on a stable angiotensin modulation regimen for a minimum of four weeks prior to initiating screening and nine weeks prior to initiating dosing; (c) blood pressure less than or equal to 145/90 mm Hg; (d) glycosylated hemoglobin Alc (HbAlc) less than or equal to 10.5%; and (e) UACR greater than or equal to 200 mg/g in male patients and 300 mg/g in female patients, ratios of albumin to creatinine that are indicative of substantial kidney damage in men and women, but not more than 5,000 mg/g, a ratio indicative of severe kidney disease. HbAlc in whole blood samples was measured by ion-exchange chromatography using a TOSOH HLC-723G8 HPLC analyzer.
The procedure is similar to the one described in the Laboratory Procedure Manual of the Centers for Disease Control and Prevention. See www.cdc.gov/nchs/data/nhanes/nhanes_11_12/GHB_met_G_Tosoh_G8.pdf. The TOSOH instrument can reliably detect HbAlc levels in the range of 4.0-16.8%.
Patients were sampled at weeks 0, 12, 24, 36 and 48 weeks (see FIG. 1). The value at 0 weeks was calculated as the mean of values recorded on Days −28, −7 and −1. In other words, the patients were tested 4 weeks before the trial, one week before the trial and one day before. The mean value of the measurements was recorded as Day 0 for the trial.

HbAlc [2] = details: 100 patients with type 2 diabetes; cited from earlier work

Compound | lowering of HbAlc in the treated group relative to placebo (HbAlc [1]; Part 1 and Part 2 (48 weeks), p=0.0001) | least square mean HbAlc value (HbAlc [1]; after Part 1 and Part 2 of the trial (48 weeks)) | least square mean HbAlc value (HbAlc [1]; beginning of the trial (week 0, mean of Days -28, -7 and -1), patients with type 2 diabetic kidney disease and macroalbuminuria) | effect on hemoglobin glycosylation (HbAlc [1]; group receiving compound, sampled at weeks 0, 12, 24, 36 and 48) | drop in AlC (HbAlc [1]; overall group change from baseline, FIG. 2 (week 12), placebo 0.23 increase, statistically significant) | patients with lower HbAlc after 12 weeks (HbAlc [1]; week 12 change from baseline, number of patients/patients in arm, FIG. 2, placebo 33/79) | effect on HbAlC (HbAlc [2])
[2H]C([2H])([2H])[C@H](O)C([2H])([2H])CCCn1c(=O)c2c(ncn2C)n(C)c1=O [Compound (V)] | statistically significant | 7.1 | 7.7 | positive effect | 0.35 | 57/83 | –
CC(=O)CCCCn1c(=O)c2c(ncn2C)n(C)c1=O [Pentoxifylline] | – | – | – | – | – | – | no effect
